The values below come from patent US10066272B2, “Human homeobox gene ventx and macrophage terminal differentiation and activation, compositions and methods thereof” (priority 2011, dated 2018).

One data set has as its system primary monocytes. Kind of data set: Monocyte to macrophage differentiation after siRNA transfection, surface markers by FACS. The data set is classed as cell-based, human. The procedure: (A) knockdown of VentX expression in primary monocytes by RNA interference. Monocytes were transfected with siRNA against GFP or VentX through electroporation. VentX mRNA levels were determined by real time PCR at 3 days after transfection (left); VentX protein level was determined by western blotting at 4 days after transfection (right). (B) Effects of VentX knockdown on macrophage morphogenesis during M-CSF induced differentiation. Monocytes were transfected with either siGFP or siVentX and subsequently exposed to 100 ng/mL M-CSF. […] Magnification of photographs, ×200. Note: a portion of cells lost their original morphology during Wright-Giemsa staining procedure. (C) Effects of VentX knockdown on macrophage surface expression of CD71. […] Filled blue histogram represents the isotope control staining; red histogram represents monocytes transfected with siGFP; green histogram represents monocytes transfected with siVentX. (D) Bar graphs show mean+SD of 6 different experiments in (C). Paired t test was used to reveal the statistical significance. **p<0.01.
(A) Left panel: Flow cytometry analysis of indicated surface markers in monocytes transfected with siGFP or siVentX, respectively; right panel: bar graphs show the mean+SD of at least three separate experiments. *p<0.05; **p<0.01. (B) Effects of VentX knockdown on macrophage viability. Monocytes were transfected with either siGFP or siVentX and subsequently exposed to 100 ng/mL M-CSF for 3 days. Cells were then harvested and stained with PI and Annexin V and analyzed by flow cytometry. (C) Effects of VentX knockdown on phagocytosis. Monocytes were transfected with siGFP or siVentX. Phagocytosis assays were carried out as described in materials and methods. […]
Surface expression of CD71 was determined by FACS analysis at 4 days after siRNA transfection. […]
Peripheral blood mononuclear cells (PBMC) from healthy adult donors at Children's Hospital Boston were isolated by Ficoll density gradient centrifugation. […] The purity of freshly isolated CD14^+ monocytes was more than 95% as analyzed by flow cytometry. […]

A further data set relates to activated macrophages. Kind of data set: Detection of reactive oxygen species (ROS) and nitric oxide (NO) in activated macrophages. The data set is classed as cell-based, human. The procedure:
Macrophages were generated through incubation of freshly isolated monocytes with 100 ng/mL M-CSF for 4 days. These macrophages were then transfected with siGFP or siVentX, respectively, and further cultured in RPMI 1640 medium for additional 3 days. Thereafter, cells were exposed to 1 μg/mL LPS plus 20 ng/mL γ-IFN for 6 hours. (A) Surface staining of CD40, CD80, CD86 and HLA-DR and intracellular staining of TNF-α and IL1-β were analyzed by flow cytometry. (B) Secreted TNF-α, IL1-β and IL12p70 from culture supernatants were determined with ELISA kits. (C) Reactive oxygen species (ROS) from siGFP or siVentX transfected macrophages were analyzed with fluorescence microscope (left) and flow cytometry (middle). […] (D) Nitrate level from siGFP and siVentX transfected macrophages. Data represent mean+SD of three different experiments. (E) Phagocytosis of siGFP and siVentX transfected macrophage. […]
The ROS level in activated macrophages was detected with Image-iT® LIVE Green Reactive Oxygen Species Detection Kit (Invitrogen) basically following the manufacturer's instructions except that the results were analyzed by both fluorescence microscope and flow cytometry. The NO level was determined by Griess Reagent Kit for Nitrite Determination (Invitrogen) following the protocol provided by the manufacturer.

As to “siVentX: VentX siRNA, forward 5′-UUCAGAAUCGCCGCAUGAAACACAAACGG-3′ (SEQ ID NO:4), reverse SEQ ID NO:5 (antisense CCGUUUGUGUUUCAUGCGGCGAUUCUGAA; listed as RNA, chemistry not given here)”, the “macrophage differentiation by GM-CSF or IL3” value in the data set with primary monocytes (monocytes, 100 ng/mL GM-CSF or IL3, CD71 at 4 days (FIG. 15)) was “blocked macrophage differentiation”. Further, in the data set on primary monocytes (transfected monocytes, M-CSF, compared with siGFP transfected control cells (FIG. 3A)), the “expression of macrophage phenotypic markers CD64, CD40, CD86, CD11b and CD11c” value is recorded as “significantly down-regulated”. For the same substance, the “reactive oxygen species produced” value with activated macrophages (transfected macrophages (FIG. 8C)) is listed as “significantly less”. In the data set with activated macrophages (transfected macrophages (FIG. 8D)), the nitric oxide produced result is listed as “significantly less”.
